# Source: PubChem BioAssay AID1963448 (Molecular Pharmacology Branch, DTP, NCI, 2024)
# Tested on: 616215-338-R-J1-PDC complex spheroid growth, % test/control
# Test: Anticancer human tumor 616215-338-R-J1-PDC patient-derived colon adenocarcinoma cell line growth inhibition [Asc]
# Conditions: for IC50: curve of first compound; for viability, T/C: stronger effect = lower value
# How it was run: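 Tumor cells were grown as complex spheroids with human endothelial cells (HUVEC) and human mesenchymal stem cells as stroma. Agents were tested alone and in combination, in half-log steps down from the clinical Cmax, or from 10 microM where Cmax was unknown.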
# 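Also: spheroids exposed to agents for seven days before readout.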
# 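For viability, T/C in this document: 100% = DMSO vehicle control viability.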
structure (smiles),measurement,setting,value
COc1c(OCCCN2CCOCC2)ccc2c3n(c(=NC(=O)c4cnc(N)nc4)nc12)CCN3 + CNC(C)C(=O)NC1CN(S(=O)(=O)c2cccc(S(=O)(=O)N3CCC4CCC(C(=O)NC(c5ccccc5)c5ccccc5)N4C(=O)C(NC(=O)C(C)NC)C3)c2)CCC2CCC(C(=O)NC(c3ccccc3)c3ccccc3)N2C1=O,IC50,second compound 0.00316 µM,0.0533 µM
same,IC50,second compound 0.01 µM,0.0549 µM
same,IC50,second compound 0.0316 µM,0.047 µM
same,IC50,second compound 0.1 µM,0.0464 µM
same,IC50,second compound 0.316 µM,0.0524 µM
same,IC50,second compound 1 µM,0.0403 µM
same,"viability, T/C","second compound 0.00316 µM, first compound 0.00316 µM",107%
same,"viability, T/C","second compound 0.00316 µM, first compound 0.01 µM",83.5%
same,"viability, T/C","second compound 0.00316 µM, first compound 0.0316 µM",68.8%
same,"viability, T/C","second compound 0.00316 µM, first compound 0.1 µM",30.4%
same,"viability, T/C","second compound 0.00316 µM, first compound 0.316 µM",14.9%
same,"viability, T/C","second compound 0.00316 µM, first compound 1 µM",2.9%
same,"viability, T/C","second compound 0.01 µM, first compound 0.00316 µM",98.6%
same,"viability, T/C","second compound 0.01 µM, first compound 0.01 µM",101%
same,"viability, T/C","second compound 0.01 µM, first compound 0.0316 µM",64%
same,"viability, T/C","second compound 0.01 µM, first compound 0.1 µM",32.5%
same,"viability, T/C","second compound 0.01 µM, first compound 0.316 µM",9.38%
same,"viability, T/C","second compound 0.01 µM, first compound 1 µM",2.23%
same,"viability, T/C","second compound 0.0316 µM, first compound 0.00316 µM",94.1%
same,"viability, T/C","second compound 0.0316 µM, first compound 0.01 µM",97.8%
same,"viability, T/C","second compound 0.0316 µM, first compound 0.0316 µM",59.5%
same,"viability, T/C","second compound 0.0316 µM, first compound 0.1 µM",26.1%
same,"viability, T/C","second compound 0.0316 µM, first compound 0.316 µM",14.3%
same,"viability, T/C","second compound 0.0316 µM, first compound 1 µM",1.77%
same,"viability, T/C","second compound 0.1 µM, first compound 0.00316 µM",101%
same,"viability, T/C","second compound 0.1 µM, first compound 0.01 µM",92.4%
same,"viability, T/C","second compound 0.1 µM, first compound 0.0316 µM",56.7%
same,"viability, T/C","second compound 0.1 µM, first compound 0.1 µM",30.4%
same,"viability, T/C","second compound 0.1 µM, first compound 0.316 µM",14.1%
same,"viability, T/C","second compound 0.1 µM, first compound 1 µM",1.87%
same,"viability, T/C","second compound 0.316 µM, first compound 0.00316 µM",93.4%
same,"viability, T/C","second compound 0.316 µM, first compound 0.01 µM",97.8%
same,"viability, T/C","second compound 0.316 µM, first compound 0.0316 µM",65.1%
same,"viability, T/C","second compound 0.316 µM, first compound 0.1 µM",27.7%
same,"viability, T/C","second compound 0.316 µM, first compound 0.316 µM",15.3%
same,"viability, T/C","second compound 0.316 µM, first compound 1 µM",3.07%
same,"viability, T/C","second compound 1 µM, first compound 0.00316 µM",87.4%
same,"viability, T/C","second compound 1 µM, first compound 0.01 µM",89.4%
same,"viability, T/C","second compound 1 µM, first compound 0.0316 µM",52.8%
same,"viability, T/C","second compound 1 µM, first compound 0.1 µM",26.8%
same,"viability, T/C","second compound 1 µM, first compound 0.316 µM",16.8%
same,"viability, T/C","second compound 1 µM, first compound 1 µM",6.17%
